Assay results published in ChEMBL document CHEMBL4715883, “Novel BuChE-IDO1 inhibitors from sertaconazole: Virtual screening, chemical optimization and molecular modeling studies” (Bioorg Med Chem Lett, 2021).

Legend:
Acetylcholinesterase = Acetylcholinesterase (Electrophorus electricus, UniProt O42275); assay: Inhibition of electric eel […] iodide as substrate preincubated for 5 mins followed by substrate addition and measured after 2 mins by Ellman's method
[1] = target: Indoleamine 2,3-dioxygenase 1 (Homo sapiens, UniProt P14902); assay: Inhibition of human N-terminal IDO1 expressed in Escherichia coli BL21 A1 cells using L-tryptophan as substrate measured after 30 mins by HPLC analysis
Sequence of Indoleamine 2,3-dioxygenase 1 (P14902 whole entry): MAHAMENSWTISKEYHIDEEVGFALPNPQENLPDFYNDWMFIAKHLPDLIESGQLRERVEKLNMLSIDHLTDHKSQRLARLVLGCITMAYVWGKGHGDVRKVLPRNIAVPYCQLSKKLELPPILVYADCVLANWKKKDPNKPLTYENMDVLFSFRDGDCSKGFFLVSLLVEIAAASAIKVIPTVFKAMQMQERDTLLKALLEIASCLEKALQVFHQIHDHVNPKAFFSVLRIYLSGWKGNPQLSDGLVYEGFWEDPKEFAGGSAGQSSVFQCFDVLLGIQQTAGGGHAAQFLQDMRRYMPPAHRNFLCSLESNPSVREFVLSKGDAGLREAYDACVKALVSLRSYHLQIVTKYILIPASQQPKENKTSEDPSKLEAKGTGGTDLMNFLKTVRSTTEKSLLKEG

Cholinesterase = Cholinesterase (Equus caballus, UniProt P81908); assay: Inhibition of equine serum BuChE using butyrylthiocholine iodide as substrate preincubated for 5 mins followed by substrate addition and measured after 2 mins by Ellman's method; type: cell-free
Sequence of Cholinesterase (P81908 whole entry): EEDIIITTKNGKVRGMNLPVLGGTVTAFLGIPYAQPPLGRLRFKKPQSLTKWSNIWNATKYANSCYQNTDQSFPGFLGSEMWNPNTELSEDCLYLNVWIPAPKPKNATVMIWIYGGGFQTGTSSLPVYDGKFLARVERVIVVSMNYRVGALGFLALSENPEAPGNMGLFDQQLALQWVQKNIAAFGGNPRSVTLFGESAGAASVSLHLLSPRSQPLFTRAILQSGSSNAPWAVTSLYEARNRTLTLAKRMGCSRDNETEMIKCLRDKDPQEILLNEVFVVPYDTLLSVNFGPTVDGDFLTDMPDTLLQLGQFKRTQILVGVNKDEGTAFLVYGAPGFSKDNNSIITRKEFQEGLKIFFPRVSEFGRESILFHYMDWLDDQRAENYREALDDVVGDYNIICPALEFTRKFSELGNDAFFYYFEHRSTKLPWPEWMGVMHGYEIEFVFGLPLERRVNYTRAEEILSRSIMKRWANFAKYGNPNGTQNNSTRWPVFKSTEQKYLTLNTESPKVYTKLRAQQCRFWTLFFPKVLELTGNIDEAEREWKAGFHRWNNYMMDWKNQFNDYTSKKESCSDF

[2] = target: Acetylcholinesterase (Electrophorus electricus) (UniProt O42275); assay: Inhibition of electric eel […] iodide as substrate at 50 uM preincubated for 5 mins followed by substrate addition and measured after 2 mins by Ellman's method relative to control; conditions: time 7.0 min
Sequence of Acetylcholinesterase (Electrophorus electricus) (O42275 24-633 limits assumed): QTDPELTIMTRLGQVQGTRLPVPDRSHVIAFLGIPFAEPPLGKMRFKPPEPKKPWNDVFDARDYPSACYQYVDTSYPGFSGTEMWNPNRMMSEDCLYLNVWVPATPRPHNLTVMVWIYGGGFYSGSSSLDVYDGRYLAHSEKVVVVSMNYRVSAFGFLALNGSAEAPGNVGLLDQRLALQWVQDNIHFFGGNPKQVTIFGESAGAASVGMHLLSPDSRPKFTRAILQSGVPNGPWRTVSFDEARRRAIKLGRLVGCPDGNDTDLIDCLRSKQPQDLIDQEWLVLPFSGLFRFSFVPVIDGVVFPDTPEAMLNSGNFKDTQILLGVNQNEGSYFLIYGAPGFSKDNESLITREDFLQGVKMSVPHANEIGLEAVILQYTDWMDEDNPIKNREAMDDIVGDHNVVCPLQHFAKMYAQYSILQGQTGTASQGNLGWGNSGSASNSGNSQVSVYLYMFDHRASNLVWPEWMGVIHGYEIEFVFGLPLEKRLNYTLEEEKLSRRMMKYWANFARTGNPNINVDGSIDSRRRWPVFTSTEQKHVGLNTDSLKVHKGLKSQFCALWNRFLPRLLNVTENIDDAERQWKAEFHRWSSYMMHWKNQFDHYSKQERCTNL

[3] = Selectivity index, ratio of IC50 for inhibition of electric eel […] iodide as substrate to IC50 for inhibition of equine serum BuChE using butyrylthiocholine iodide as substrate
Homo sapiens [4] = species: Homo sapiens; assay: Inhibition of amyloid beta (1 to 42) (unknown origin) aggregation by ThT fluorescence assay; conditions: dose 10-50 µM
Homo sapiens [5] = species: Homo sapiens; assay: inhibition of amyloid beta (1 to 42) (unknown origin) aggregation at 50 uM by ThT fluorescence assay relative to control
[6] = Cytotoxicity against human SH-SY5Y cells assessed as reduction in cell viability after 48 hrs by MTT assay; type: cell-based; conditions: read-out: LD50

Sequence of Acetylcholinesterase (O42275 whole entry): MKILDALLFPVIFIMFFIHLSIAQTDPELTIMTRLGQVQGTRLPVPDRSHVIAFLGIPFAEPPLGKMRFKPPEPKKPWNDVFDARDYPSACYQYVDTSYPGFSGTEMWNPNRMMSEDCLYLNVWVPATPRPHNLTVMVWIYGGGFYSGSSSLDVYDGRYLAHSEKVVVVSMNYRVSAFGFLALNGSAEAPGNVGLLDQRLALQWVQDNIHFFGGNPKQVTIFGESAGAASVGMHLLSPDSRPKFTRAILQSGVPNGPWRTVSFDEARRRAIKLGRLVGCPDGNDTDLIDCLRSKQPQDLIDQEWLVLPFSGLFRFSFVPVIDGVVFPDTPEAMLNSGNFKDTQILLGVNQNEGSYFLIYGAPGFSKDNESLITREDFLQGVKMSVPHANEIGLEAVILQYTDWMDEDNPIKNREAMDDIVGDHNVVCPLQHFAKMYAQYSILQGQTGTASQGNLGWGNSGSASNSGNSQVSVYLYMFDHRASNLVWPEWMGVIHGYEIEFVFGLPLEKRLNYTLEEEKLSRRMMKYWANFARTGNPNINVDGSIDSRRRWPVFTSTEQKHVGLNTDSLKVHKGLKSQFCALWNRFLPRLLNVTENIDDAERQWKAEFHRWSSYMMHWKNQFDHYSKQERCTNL

SMILES	IC50 (Acetylcholinesterase)	IC50 [1]	IC50 (Cholinesterase)	inhibition [2]	Ratio IC50 [3]	inhibition (Homo sapiens [4])	inhibition (Homo sapiens [5])	CC50 at 48 h [6]
Clc1ccccc1C(Cn1ccnc1)OCc1nc2ccccc2s1 (stereo not drawn)	58.7 µM	59.6 µM	11.3 µM	47.4%	–	–	–	–
Clc1cccc(C(Cn2ccnc2)OCc2nc3ccccc3s2)c1 (stereo not drawn)	–	25 µM	6 µM	19.9%	–	–	–	–
Clc1ccc(C(Cn2ccnc2)OCc2cccnc2)c(Cl)c1 (stereo not drawn)	11.9 µM	94.5 µM	41.7 µM	–	0.3	–	–	–
Clc1ccc(C(Cn2ccnc2)OCc2cccc3ccccc23)c(Cl)c1 (stereo not drawn)	90.4 µM	48.6 µM	4 µM	–	22.6	–	–	–
Clc1ccc(C(Cn2ccnc2)OCc2ccc3ccccc3c2)c(Cl)c1 (stereo not drawn)	4.3 µM	22.3 µM	0.09 µM	–	47.8	Dose-dependent effect	48.3%	9.8 µM
Clc1ccc(C(Cn2ccnc2)OCc2csc3c(Cl)cccc23)c(Cl)c1 (stereo not drawn) [SERTACONAZOLE]	–	3.8 µM	7.4 µM	–	–	–	–	–
Clc1ccc(C(Cn2ccnc2)OCc2cc3ccccc3s2)c(Cl)c1 (stereo not drawn)	15.5 µM	17.7 µM	1.4 µM	–	11	–	–	–
Fc1ccc(C(Cn2ccnc2)OCc2nc3ccccc3s2)cc1 (stereo not drawn)	–	73.6 µM	3.9 µM	11.4%	–	–	–	–
Brc1cccc(C(Cn2ccnc2)OCc2nc3ccccc3s2)c1 (stereo not drawn)	–	3.7 µM	15.1 µM	25.5%	–	–	–	–
Clc1ccc(COC(Cn2ccnc2)c2ccc(Cl)cc2Cl)c(Cl)c1 (stereo not drawn) [MICONAZOLE]	2.4 µM	2.9 µM	4.3 µM	–	0.6	–	–	–
Clc1ccc(C(Cn2ccnc2)OCc2ccsc2)c(Cl)c1 (stereo not drawn)	18.3 µM	63.6 µM	31.9 µM	–	0.6	–	–	–
Clc1ccc(C(Cn2ccnc2)OCc2nc3ccccc3s2)cc1 (stereo not drawn)	–	87 µM	7.9 µM	17.8%	–	–	–	–
Fc1ccc(C(Cn2ccnc2)OCc2nc3ccccc3s2)c(F)c1 (stereo not drawn)	–	133 µM	5.7 µM	12.4%	–	–	–	–
Brc1ccc(C(Cn2ccnc2)OCc2nc3ccccc3s2)cc1 (stereo not drawn)	–	49.3 µM	10 µM	21%	–	–	–	–
Clc1ccc(C(Cn2ccnc2)OCc2nc3ccccc3s2)cc1Cl (stereo not drawn)	–	3 µM	1 µM	5%	> 50	–	–	–
Clc1ccc(C(Cn2ccnc2)OCc2nc3ccccc3o2)c(Cl)c1 (stereo not drawn)	44.6 µM	136 µM	17.6 µM	–	2.5	–	–	–
Clc1ccc(C(Cn2ccnc2)OCc2nc3ccccc3s2)c(Cl)c1 (stereo not drawn)	13.1 µM	6.7 µM	3.9 µM	–	3.4	Dose-dependent effect	52.2%	11.8 µM
Fc1ccc(C(Cn2ccnc2)OCc2nc3ccccc3s2)cc1F (stereo not drawn)	–	35.4 µM	1.1 µM	7.2%	> 50	–	–	–
Fc1cc(C(Cn2ccnc2)OCc2nc3ccccc3s2)ccc1Cl (stereo not drawn)	–	57.7 µM	6.2 µM	22.1%	–	–	–	–
